Data published in US20260284069A1, “PARG INHIBITORY COMPOUNDS” (FoRx Therapeutics AG, priority 2023, published 2026).
Counter-ions that a name gives are not always drawn. Like-named read-outs stand apart in the source and are kept apart here.

Legend:
U2OS cells = assay: Cellular viability assay (U2OS, PARG-inhibition insensitive cell line); format: cell-based; conditions: 96 hours incubation, Cell Titer-Glo, read-out: EC50 determined in U2OS cells, cellular viability assay
Description: (§1) NCIH-460 as a PARG-inhibition sensitive cell line and U2OS as PARG-inhibition insensitive cell line were plated at 1000 cells/well and 2000 cells/well, respectively, in 96-well white plates with clear flat bottom. After 24 hours, the compounds were added with the Tecan digital dispenser (D300e), in duplicates. The outer wells of the plate were excluded. After 96 hours of incubation, 150 μl of the growth medium were removed and 50 μl of Cell Titer-Glo (Promega) were added per well. Following an incubation of 10 minutes, luminescence was read using a plate reader (Tecan). Averaged values of the samples were normalized to DMSO treated control samples. Curves were fit as % of the control vs. log of the compound concentration using a 4 parameter log-logistic function: […]

NCIH-460 cells = assay: Cellular viability assay (NCIH-460, PARG-inhibition sensitive cell line); format: cell-based; conditions: Cell Titer-Glo, read-out: EC50 determined in NCIH-460 cells, cellular viability assay
Description: as §1

human PARG = target: T1, human PARG (Homo sapiens, UniProt Q86W56, A967T/C963S/D927K/H446G/I916T/L447S/L473S/M841I/N479S/R811K/S802A/S858P/T924D); assay: PARG enzymatic IC50 assay; format: biochemical; conditions: PARG protein, 2 hours incubation; substrate ADP-ribose-pNP, absorbance 405 nm; read-out: IC50 determined in PARG enzymatic assay
T1 construct: human PARG (448-976 [H446G, L447S, L473S); 6His-TwinStrep (protease-cleavable) (N, cleaved yes); Gly-Ser at positions 446-447, given as H446G, L447S; host or cells: E. coli BL21 (DE3)
Description: A codon optimized gene encoding human PARG (448-976 [H446G, L447S, L473S, N479S, S802A, R811K, M841I, S858P, I916T, T924D, D927K, C963S, A967T]) was synthesized by Genscript, and cloned into pET15b (NcoI/BamHI) with an N-terminal, […] protease cleavable 6His-TwinStrep tag. Expression of the protein in E. coli BL21 (DE3) was induced by addition of 0.2 mM IPTG to a shake flask culture grown to OD600=0.8 at 37° C. Growth was allowed to continue at 30° C. for a further 20 hours before harvesting by centrifugation and storage of the cell pellet at −80° C.
Protein was purified by IMAC and SEC: frozen cell pellets (typically 40 g wet weight) were resuspended by homogenization in 5 volumes buffer A (25 mM Tris/HCl pH 8.0, 200 mM NaCl, 2 mM DTT), supplemented with 1 mg of DNase I from bovine pancreas (Sigma-Aldrich) and protease inhibitors (Roche Complete™ EDTA-free protease inhibitor tablet), and lysed by passage through a Constant Systems BasicZ homogenizer. The lysate was clarified by centrifugation for 60 minutes at 25,000 g, 4° C., and the lysate supernatant was loaded onto 5 ml StrepTrap HP (Cytiva) pre-equilibrated with buffer A. The column was washed with buffer A (~10 CV), then buffer B containing 1M KCl (~5 CV), and then the protein was eluted with buffer A containing 2.5 mM d-Desthiobiotin. Pooled fractions containing 6HisTwinStrep-TEV-hPARG were incubated with TEV protease overnight at 4° C. hPARG was separated from uncleaved material and […] protease through gel filtration with Superdex75 sizing column (GE Healthcare) pre-equilibrated with SEC buffer (15 mM Tris/HCl pH 8.5, 100 mM NaCl, 2 mM DTT). Pooled fractions containing pure hPARG were concentrated using a 10 k MWCO spin concentrator (VivaSpin) to 10 mg/mL, and then either used immediately for crystallisation or snap-frozen in liquid nitrogen for storage at −80° C.
PARG enzyme as incubated with compound or vehicle (DMSO) for 2 hours in a 384 well plate. After adding the PARG substrate ADP-ribose-pNP, the plate was read for absorbance intensity at 405 nm. The vehicle (DMSO) with high absorbance intensity represents no inhibition of enzymatic reaction while the low control (no enzyme) with low absorbance intensity represents full inhibition of enzymatic reaction.
• hPARG: Peak Protein, 30 nM • Substrate: ADP-pNP, 800 μM, Jena Bioscience catalog #NU-955 • Reaction time: 60 minutes • Assay buffer: 50 mM Tris-HCl pH 8.0, 100 mM NaCl, 2 mM DTT • Temperature: 30° C. • Total volume: 30 μL
• 0% inhibition control: DMSO • 100% inhibition control: No enzyme
The protocol that was used for enzyme reaction and detection is as follows: • 1. Transfer 100 nL of the final concentration of test compounds or vehicle (DMSO) to the appropriate wells of a microtiter plate. • 2. Centrifuge the plate at 1000 rpm for 1 minute. • 3. Transfer 14.6 μL of 2× final concentration of enzyme in assay buffer or assay buffer alone to the appropriate wells. • 4. Centrifuge the plate at 1000 rpm for 1 minute. • 5. Incubate the plate at room temperature for 15 minutes or 2 hours. • 6. Transfer 15.4 μL of 2× substrate in assay buffer to all the test wells. • 7. Centrifuge the plate at 1000 rpm for 1 minute. • 8. Read the plate on a plate reader (e.g., Spark Tecan).

PARG = target: T2, PARG (Homo sapiens, UniProt Q86W56); assay: Cellular PAR chain assay; format: cell-based; conditions: U2OS cells, 1 hour compound pretreatment then 1-hour TMZ treatment; % PAR chain positive cells by flow cytometry; read-out: EC50 determined in cellular PAR chain assay
T2 construct: endogenous in cells; host or cells: U2OS
Description: The ability of compounds to inhibit PARG in response to DNA damage, was assessed with U2OS cells pretreated with the compounds for 1 hour, following a 1-hour treatment with the DNA alkylating agent temozolomide (TMZ). […] The cells were incubated for 2 hours at room temperature with a mouse monoclonal antibody against poly (ADP) ribose (PAR) polymer. The cells were washed and incubated with an anti-mouse Alexa-488 conjugated secondary antibody for 1 hour at room temperature. Propidium iodide staining was used to determine DNA content in the cells (staining at 4° C. overnight). The fluorescence intensity of the cells was assessed by flow cytometry (Cytoflex from Beckmann) and the percentage of PAR chain positive cells (gated in relation to TMZ+DMSO treated control) was determined. PAR chain positive cells % were fit against the concentration of the compound using a 4 parameter log-logistic function, generating PAR chain EC50 values: […]

[1] = Homo sapiens, NCI-H460, 96 h, 96 hours incubation

T2 sequence (Q86W56 whole entry): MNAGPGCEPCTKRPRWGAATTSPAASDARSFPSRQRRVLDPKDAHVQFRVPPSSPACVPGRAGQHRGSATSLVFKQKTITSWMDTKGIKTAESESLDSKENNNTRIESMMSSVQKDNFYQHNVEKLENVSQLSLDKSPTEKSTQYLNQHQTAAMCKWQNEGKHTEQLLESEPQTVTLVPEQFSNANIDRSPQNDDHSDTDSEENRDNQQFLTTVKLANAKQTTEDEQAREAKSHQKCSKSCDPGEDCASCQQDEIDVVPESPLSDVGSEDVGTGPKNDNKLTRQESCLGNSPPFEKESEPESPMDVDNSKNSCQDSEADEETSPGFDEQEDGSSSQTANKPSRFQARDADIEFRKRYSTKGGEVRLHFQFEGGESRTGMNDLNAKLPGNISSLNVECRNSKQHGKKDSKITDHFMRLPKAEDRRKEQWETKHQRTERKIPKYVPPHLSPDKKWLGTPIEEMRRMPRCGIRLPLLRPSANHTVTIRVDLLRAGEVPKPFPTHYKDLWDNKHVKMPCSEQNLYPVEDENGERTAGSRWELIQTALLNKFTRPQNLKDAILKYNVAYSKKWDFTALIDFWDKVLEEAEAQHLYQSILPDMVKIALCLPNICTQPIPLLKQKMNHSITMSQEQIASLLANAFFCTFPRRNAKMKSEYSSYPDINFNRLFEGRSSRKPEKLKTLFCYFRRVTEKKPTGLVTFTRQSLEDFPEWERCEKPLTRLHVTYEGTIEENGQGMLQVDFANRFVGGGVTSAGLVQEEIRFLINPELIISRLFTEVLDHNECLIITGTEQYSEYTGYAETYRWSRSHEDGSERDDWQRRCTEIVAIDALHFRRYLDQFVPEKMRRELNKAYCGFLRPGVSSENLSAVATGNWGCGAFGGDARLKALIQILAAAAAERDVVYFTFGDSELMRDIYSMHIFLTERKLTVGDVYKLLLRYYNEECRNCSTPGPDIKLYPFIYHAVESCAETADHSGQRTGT
T1 sequence (Q86W56 446-976 H446G/L447S/L473S/N479S/S802A/R811K/M841I/S858P/I916T/T924D/D927K/C963S/A967T): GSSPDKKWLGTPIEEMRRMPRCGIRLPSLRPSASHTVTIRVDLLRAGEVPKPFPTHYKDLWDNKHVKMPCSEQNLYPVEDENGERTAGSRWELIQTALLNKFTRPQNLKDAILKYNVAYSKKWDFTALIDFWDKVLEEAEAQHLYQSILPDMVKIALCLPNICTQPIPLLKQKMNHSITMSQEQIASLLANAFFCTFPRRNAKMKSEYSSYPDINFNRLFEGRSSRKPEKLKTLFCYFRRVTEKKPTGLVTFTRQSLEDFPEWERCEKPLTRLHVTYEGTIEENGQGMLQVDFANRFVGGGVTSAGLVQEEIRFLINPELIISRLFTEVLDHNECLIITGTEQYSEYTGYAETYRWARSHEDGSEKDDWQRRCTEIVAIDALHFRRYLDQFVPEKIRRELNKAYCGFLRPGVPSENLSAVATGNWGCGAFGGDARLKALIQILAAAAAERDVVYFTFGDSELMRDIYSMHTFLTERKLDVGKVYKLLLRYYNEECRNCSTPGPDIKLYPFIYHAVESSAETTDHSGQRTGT

SMILES | EC50 (U2OS cells; Homo sapiens, U2OS, 96 h) [µM] | EC50 (NCIH-460 cells; 96 hours incubation) [µM] | IC50 (human PARG) [µM] | EC50 (U2OS cells) [µM] | EC50 (NCIH-460 cells; [1]) [µM] | EC50 (U2OS cells; Homo sapiens) [µM] | EC50 (NCIH-460 cells; Homo sapiens, NCI-H460, 96 hours incubation) [µM] | EC50 (PARG) [µM]
CC1(C)CN(c2cc(S(=O)(=O)NC3(C)CC3)cn3c(-c4nnc(C(F)F)s4)ncc23)CC(CO)N1 (single isomer, unassigned) [Example 14a, (R or S)-3-(5-(difluoromethyl)-1,3,4-thiadiazol-2-yl)-8-(5-(hydroxymethyl)-3,3-dimethylpiperazin-1-yl)-N-(1-methylcyclopropyl)imidazo[1,5-a]pyridine-6-sulfonamide] | > 11.9 | 1.79 | 0.015 |  |  |  |  | 
CC1(C)CN(c2cc(S(=O)(=O)NC3(C)CC3)cn3c(-c4nnc(C(F)F)s4)ncc23)CC(CO)N1 (single isomer, unassigned) [Example 14b, (S or R)-3-(5-(difluoromethyl)-1,3,4-thiadiazol-2-yl)-8-(5-(hydroxymethyl)-3,3-dimethylpiperazin-1-yl)-N-(1-methylcyclopropyl)imidazo[1,5-a]pyridine-6-sulfonamide] |  | 0.0774 | 0.012 | > 11.4 |  |  |  | 
C[C@H]1CN(c2cc(S(=O)(=O)NC3(C)CC3)cn3c(-c4nnc(C(F)F)s4)cnc23)C[C@H](C)N1 [Example 1, 3-(5-(difluoromethyl)-1,3,4-thiadiazol-2-yl)-8-((3S,5S)-3,5-dimethylpiperazin-1-yl)-N-(1-methylcyclopropyl)imidazo[1,2-a]pyridine-6-sulfonamide formate] | 12.6 |  | 0.011 |  | 0.07 |  |  | 
CC1(NS(=O)(=O)c2cc(C3=CCNCC3(F)F)c3c(Cl)nc(-c4nnc(C(F)F)s4)n3c2)CC1 [Example 2, 1-chloro-8-(3,3-difluoro-1,2,3,6-tetrahydropyridin-4-yl)-3-(5-(difluoromethyl)-1,3,4-thiadiazol-2-yl)-N-(1-methylcyclopropyl)imidazo[1,5-a]pyridine-6-sulfonamide] | 13.3 |  | 0.011 |  | 0.199 |  |  | 
COC[C@H]1CN(c2cc(S(=O)(=O)NC3(C)CC3)cn3c(-c4nnc(C(F)F)s4)ncc23)C[C@H](COC)N1 [Example 3, 8-((3R,5R)-3,5-bis(methoxymethyl)piperazin-1-yl)-3-(5-(difluoromethyl)-1,3,4-thiadiazol-2-yl)-N-(1-methylcyclopropyl)imidazo[1,5-a]pyridine-6-sulfonamide formate] | > 11 |  | 0.012 |  | 0.019 |  |  | 
CN=S1(=O)CCN(c2cc(S(=O)(=O)NC3(C)CC3)cn3c(-c4nnc(C(F)F)s4)ncc23)CC1C (stereo not drawn) [Example 4, (Cis or Trans)-3-(5-(difluoromethyl)-1,3,4-thiadiazol-2-yl)-8-(2-methyl-1-(methylimino)-1-oxido-116-thiomorpholino)-N-(1-methylcyclopropyl)imidazo[1,5-a]pyridine-6-sulfonamide] | > 20 |  | 0.011 |  | 0.111 |  |  | 
CN=S1(=O)CCN(c2cc(S(=O)(=O)NC3(C)CC3)cn3c(-c4nnc(C(F)F)s4)ncc23)CC1C (stereo not drawn) [Example 5, (Trans or Cis)-3-(5-(difluoromethyl)-1,3,4-thiadiazol-2-yl)-8-(2-methyl-1-(methylimino)-1-oxido-116-thiomorpholino)-N-(1-methylcyclopropyl)imidazo[1,5-a]pyridine-6-sulfonamide] |  | 0.208 |  | > 20 |  |  |  | 
CC1CN(c2cc(S(=O)(=O)NC3(C)CC3)cn3c(-c4nnc(C(F)F)s4)ncc23)CC2(CC2)N1 (centres unmarked) [Example 10, 3-(5-(difluoromethyl)-1,3,4-thiadiazol-2-yl)-8-(5-methyl-4,7-diazaspiro[2.5]octan-7-yl)-N-(1-methylcyclopropyl)imidazo[1,5-a]pyridine-6-sulfonamide formate] | > 20 |  | 0.011 |  | 0.418 |  |  | 
CC1(NS(=O)(=O)c2cc(C3=CCNCC3)c3c(C4CC4)nc(-c4nnc(C(F)F)s4)n3c2)CC1 [Example 11, 1-cyclopropyl-3-(5-(difluoromethyl)-1,3,4-thiadiazol-2-yl)-N-(1-methylcyclopropyl)-8-(1,2,3,6-tetrahydropyridin-4-yl)imidazo[1,5-alpyridine-6-sulfonamide formate] |  |  | 0.016 |  |  | 1720 | 0.074 | 0.009
CC1(NS(=O)(=O)c2cc(C3=CCNCC3)c3c(C(F)(F)F)nc(-c4nnc(C(F)F)s4)n3c2)CC1 [Example 12, 3-(5-(difluoromethyl)-1,3,4-thiadiazol-2-yl)-N-(1-methylcyclopropyl)-8-(1,2,3,6-tetrahydropyridin-4-yl)-1-(trifluoromethyl)imidazo[1,5-a]pyridine-6-sulfonamide formate] | 3.87 |  | 0.011 |  | 0.094 |  |  | 0.006
C[C@H]1CN(c2cc(S(=O)(=O)NC3(C)CC3)cn3c(-c4nnc(C(F)F)s4)nc(F)c23)C[C@H](C)N1 [Example 13, 3-(5-(difluoromethyl)-1,3,4-thiadiazol-2-yl)-8-((3S,5S)-3,5-dimethylpiperazin-1-yl)-1-fluoro-N-(1-methylcyclopropyl)imidazo[1,5-a]pyridine-6-sulfonamide] | 3.59 |  | 0.016 |  | 0.035 |  |  | 0.005
CC1(C)CN(c2cc(S(=O)(=O)NC3(C)CC3)cn3c(-c4nnc(C(F)F)s4)ncc23)CC(CO)N1 (centres unmarked) [Example 14, 3-(5-(difluoromethyl)-1,3,4-thiadiazol-2-yl)-8-(5-(hydroxymethyl)-3,3-dimethylpiperazin-1-yl)-N-(1-methylcyclopropyl)imidazo[1,5-a]pyridine-6-sulfonamide] | 9.52 |  | 0.011 |  | 0.094 |  |  | 
